According to patent publication US20250152585A1, “PHARMACEUTICAL COMPOUND” (Duke Street Bio Limited, priority 2022, published 2025):
pIC50, pKd: −log10 of the molar value. Like-named read-outs stand apart in the source and are kept apart here.

Columns and labels:
[1] = biological target: T1, N-terminally FLAG-tagged PARP2 (amino acids 1-583) (Homo sapiens, UniProt Q9UGN5); experiment: PARP2 probe displacement HTRF assay; assay type: binding; details: binned Kd
T1 construct: N-terminally FLAG-tagged PARP2 (amino acids 1-583)
T1 sequence (Q9UGN5 whole entry, the tested form may be a part): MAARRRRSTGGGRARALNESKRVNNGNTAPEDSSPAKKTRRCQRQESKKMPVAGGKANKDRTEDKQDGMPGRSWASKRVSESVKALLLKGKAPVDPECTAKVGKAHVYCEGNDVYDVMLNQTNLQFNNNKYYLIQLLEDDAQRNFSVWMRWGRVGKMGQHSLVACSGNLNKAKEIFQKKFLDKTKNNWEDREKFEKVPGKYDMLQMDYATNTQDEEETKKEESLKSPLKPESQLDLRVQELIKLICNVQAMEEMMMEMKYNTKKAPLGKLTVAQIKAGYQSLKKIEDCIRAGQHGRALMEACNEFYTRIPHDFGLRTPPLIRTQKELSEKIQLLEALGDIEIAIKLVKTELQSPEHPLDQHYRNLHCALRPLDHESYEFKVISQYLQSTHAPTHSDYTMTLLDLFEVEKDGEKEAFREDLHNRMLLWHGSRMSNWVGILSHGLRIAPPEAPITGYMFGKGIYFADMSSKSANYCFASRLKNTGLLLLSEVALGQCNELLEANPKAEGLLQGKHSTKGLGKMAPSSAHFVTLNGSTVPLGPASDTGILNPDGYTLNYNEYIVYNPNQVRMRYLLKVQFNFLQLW
Description: Data analysis was performed identical as for PARP1.

[2] = biological target: T2, full length N-terminally FLAG-tagged PARP1 (Homo sapiens, UniProt P09874); experiment: PARP1 probe displacement HTRF assay; details: for Selectivity: PARP1 over PARP2, ratio Kd (PARP2)/Kd (PARP1); for pKd: read-out: PARP1 HTRF, binned Kd
T2 sequence (P09874 whole entry): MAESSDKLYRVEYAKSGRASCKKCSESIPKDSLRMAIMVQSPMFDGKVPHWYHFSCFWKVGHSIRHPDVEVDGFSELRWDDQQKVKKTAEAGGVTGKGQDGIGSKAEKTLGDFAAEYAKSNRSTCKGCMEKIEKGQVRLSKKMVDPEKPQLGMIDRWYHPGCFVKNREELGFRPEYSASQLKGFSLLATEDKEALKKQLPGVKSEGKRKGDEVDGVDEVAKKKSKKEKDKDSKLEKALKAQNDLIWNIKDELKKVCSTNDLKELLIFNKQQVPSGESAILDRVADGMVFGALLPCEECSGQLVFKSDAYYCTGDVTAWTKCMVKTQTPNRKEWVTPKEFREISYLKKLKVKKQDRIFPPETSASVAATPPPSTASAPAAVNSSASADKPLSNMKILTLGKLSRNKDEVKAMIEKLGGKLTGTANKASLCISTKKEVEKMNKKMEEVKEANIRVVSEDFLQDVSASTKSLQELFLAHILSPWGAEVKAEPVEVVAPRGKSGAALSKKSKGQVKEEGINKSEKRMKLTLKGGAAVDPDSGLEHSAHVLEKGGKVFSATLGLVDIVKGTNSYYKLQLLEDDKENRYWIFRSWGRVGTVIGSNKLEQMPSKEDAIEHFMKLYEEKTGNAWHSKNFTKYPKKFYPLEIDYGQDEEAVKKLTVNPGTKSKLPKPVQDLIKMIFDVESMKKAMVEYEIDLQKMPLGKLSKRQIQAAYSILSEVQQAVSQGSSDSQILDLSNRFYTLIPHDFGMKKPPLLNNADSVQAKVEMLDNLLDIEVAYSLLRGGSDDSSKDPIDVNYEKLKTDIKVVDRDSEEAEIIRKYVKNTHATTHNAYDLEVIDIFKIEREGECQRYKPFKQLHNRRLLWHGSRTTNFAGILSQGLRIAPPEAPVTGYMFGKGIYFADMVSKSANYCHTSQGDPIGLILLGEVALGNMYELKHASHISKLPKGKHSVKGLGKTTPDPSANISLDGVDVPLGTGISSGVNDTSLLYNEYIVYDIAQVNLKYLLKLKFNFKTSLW

[3] = biological target: T2, full length N-terminally FLAG-tagged PARP1; experiment: PARP1 biochemical DELFIA assay (auto-PARylation); design: recombinant full length human N-terminally FLAG-tagged PARP1
[4] = binned IC50, biochemical auto-PARylation assay
[5] = binned IC50, PARP1 biochemical DELFIA assay

Row | Compound | pKd ([1]; probe displacement HTRF) | Selectivity ([2]; probe displacement HTRF) | pKd ([2]; probe displacement HTRF) | pIC50 [3, 4] | pKd ([1]; PARP2 probe displacement HTRF) | pKd ([2]; PARP1 probe displacement HTRF) | pIC50 [3, 5]
1 | CCc1ccc(C2CCN(C3CCN(c4ccc(C(=O)NC5CC5)nc4C#N)CC3)C2)[nH]c1=O (single isomer, unassigned) [Compound 409a] | 5.00 to 6.00 | +++ (+++ indicate a value of at least 100) | > 8.00 | > 8.00 |  |  | 
2 | CCc1ccc(C2CCN(C3CCN(c4cnc(C(=O)NC)cc4C(F)(F)F)CC3)C2)[nH]c1=O (single isomer, unassigned) [Compound 298a] | < 5.00 | − (− indicates a value of less than 10) | 5.00 to 6.00 | 5.00 to 6.00 |  |  | 
3 | CS(=O)(=O)Nc1ccc(N2CCC(N3CCC(c4cc5ccccc5c(=O)[nH]4)C3)CC2)cn1 (single isomer, unassigned) [Compound 252a] | 5.00 to 6.00 | − (− indicates a value of less than 10) | 6.00 to 7.00 | 6.00 to 7.00 |  |  | 
4 | CNC(=O)c1ccc(N2CCC(N3CCCC(c4nc5c(c(C(F)(F)F)nn5C)c(=O)[nH]4)C3)CC2)cn1 (single isomer, unassigned) [Compound 190a] |  | + (+ indicates a value of 10 to less than 50) |  |  | 5.00 to 6.00 | 6.00 to 7.00 | 6.00 to 7.00
5 | CNC(=O)c1ccc(N2CCC(N3CCCC(O)(c4nc5ccccc5c(=O)[nH]4)C3)CC2)cn1 (single isomer, unassigned) [Compound 327b] | < 5.00 | − (− indicates a value of less than 10) | 6.00 to 7.00 | 6.00 to 7.00 |  |  | 
6 | COCCNC(=O)c1ccc(N2CCC(N3CCC(c4nc5ccccc5c(=O)[nH]4)C3)CC2)cn1 (racemic) [Compound 124rac] |  | +++ (+++ indicate a value of at least 100) |  |  | 6.00 to 7.00 | > 8.00 | > 8.00
7 | CNC(=O)c1ccc(N2CCC(N3CCC(c4nc5ccc(C(F)(F)F)cc5c(=O)[nH]4)C3)CC2)cn1 (single isomer, unassigned) [Compound 161a] |  | − (− indicates a value of less than 10) |  |  | < 5.00 | 6.00 to 7.00 | 6.00 to 7.00
8 | CNC(=O)c1ccc(N2CCC(N3CCC(c4ccc(CC(F)F)c(=O)[nH]4)C3)CC2)cn1 (racemic) [Compound 391rac] | 5.00 to 6.00 | +++ (+++ indicate a value of at least 100) | > 8.00 | > 8.00 |  |  | 
9 | CNC(=O)c1ccc(N2CCC(N3CCC(c4cc5ccc(F)cc5c(=O)[nH]4)C3)CC2)cc1F (single isomer, unassigned) [Compound 270a] | 7.00 to 8.00 | − (− indicates a value of less than 10) | 7.00 to 8.00 | 7.00 to 8.00 |  |  | 
10 | CNC(=O)c1ccc(N2CCC(N3CCCC(Cc4nc5ccccc5c(=O)[nH]4)C3)CC2)cn1 (single isomer, unassigned) [Compound 57a] |  | +++ (+++ indicate a value of at least 100) |  |  | < 5.00 | 7.00 to 8.00 | > 8.00
11 | COCCNC(=O)c1ccc(N2CCC(N3CCCC(c4nc5ccccc5c(=O)[nH]4)C3)CC2)cn1 (single isomer, unassigned) [Compound 116b] |  | − (− indicates a value of less than 10) |  |  | 5.00 to 6.00 | 6.00 to 7.00 | 6.00 to 7.00
12 | N#Cc1ccc(N2CCC(N3CCC(c4cc5ccc(F)cc5c(=O)[nH]4)C3)CC2)c(F)c1 (single isomer, unassigned) [Compound 385b] | 7.00 to 8.00 | +++ (+++ indicate a value of at least 100) | > 8.00 | > 8.00 |  |  | 
13 | CNC(=O)c1cnc(N2CCC(N3CCC(c4cc5ccccc5c(=O)[nH]4)C3)CC2)s1 (racemic) [Compound 320rac] | 5.00 to 6.00 | − (− indicates a value of less than 10) | 6.00 to 7.00 | 6.00 to 7.00 |  |  | 
14 | CCc1nc(C(=O)NC)ccc1N1CCC(N2CCC(c3nc4ccccc4c(=O)[nH]3)C2)CC1 (single isomer, unassigned) [Compound 118b] |  | ++ (++ indicates a value of 50 to less than 100) |  |  | < 5.00 | 7.00 to 8.00 | 7.00 to 8.00
15 | N#Cc1ccc(N2CCC(N3CCC(c4cc5cccc(F)c5c(=O)[nH]4)C3)CC2)nc1 (single isomer, unassigned) [Compound 340a] | 6.00 to 7.00 | +++ (+++ indicate a value of at least 100) | > 8.00 | > 8.00 |  |  | 
16 | CNC(=O)c1ccc(N2CCC(N3CCC(c4nc5ccccc5c(=O)[nH]4)C3)CC2)c(Cl)n1 (racemic) [Compound 104rac] |  | +++ (+++ indicate a value of at least 100) |  |  | 5.00 to 6.00 | > 8.00 | > 8.00
17 | CNC(=O)c1ccc(N2CCC(N3CCC(c4ccc(CC5CC5)c(=O)[nH]4)C3)CC2)cn1 (single isomer, unassigned) [Compound 213a] |  | +++ (+++ indicate a value of at least 100) |  |  | < 5.00 | 7.00 to 8.00 | 7.00 to 8.00
18 | CNC(=O)c1ccc(N2CCC(N3CCC(c4ccc(C5CC5)c(=O)[nH]4)C3)CC2)cn1 (racemic) [Compound 141rac] |  | +++ (+++ indicate a value of at least 100) |  |  | 5.00 to 6.00 | > 8.00 | > 8.00
19 | CCc1ccc(C2CCN(C3CCN(c4ccc(C(=O)NC)cc4F)CC3)C2)[nH]c1=O (single isomer, unassigned) [Compound 366b] | 6.00 to 7.00 | ++ (++ indicates a value of 50 to less than 100) | > 8.00 | > 8.00 |  |  | 
20 | N#Cc1ccc(N2CCC(N3CCC(c4cc5cccc(F)c5c(=O)[nH]4)C3)CC2)cc1 (single isomer, unassigned) [Compound 314a] | 6.00 to 7.00 | + (+ indicates a value of 10 to less than 50) | > 8.00 | > 8.00 |  |  | 
21 | CCc1nc(C(=O)NC)ccc1N1CCC(N2CCC(c3nc4ccccc4c(=O)[nH]3)C2)CC1 (single isomer, unassigned) [Compound 118a] |  | +++ (+++ indicate a value of at least 100) |  |  | < 5.00 | > 8.00 | > 8.00
22 | CNC(=O)c1ccc(N2CCC(N3CCCC(c4ccc(C5CC5)c(=O)[nH]4)C3)CC2)cn1 (single isomer, unassigned) [Compound 126b] |  | + (+ indicates a value of 10 to less than 50) |  |  | < 5.00 | 6.00 to 7.00 | 6.00 to 7.00
23 | CNC(=O)c1ccc(N2CCC(N3CCC(c4cc5ncccc5c(=O)[nH]4)C3)CC2)cn1 (single isomer, unassigned) [Compound 218b] |  | +++ (+++ indicate a value of at least 100) |  |  | 6.00 to 7.00 | > 8.00 | > 8.00
24 | CNC(=O)c1ccc(N2CCC(N3CCC(c4nc5c(F)cccc5c(=O)[nH]4)C3)CC2)cn1 (single isomer, unassigned) [Compound 121b] |  | +++ (+++ indicate a value of at least 100) |  |  | 6.00 to 7.00 | > 8.00 | > 8.00
25 | CNC(=O)c1ccc(N2CCC(N3CCC(c4cnc(C(F)(F)F)c(=O)[nH]4)C3)CC2)cn1 (single isomer, unassigned) [Compound 279b] | < 5.00 | − (− indicates a value of less than 10) | 5.00 to 6.00 | 5.00 to 6.00 |  |  | 
